Tests used:
[1] = system: transgenic Arabidopsis plants with wildtype or mutated cellulose synthase sequences (SEQ ID NO: 1 or 3); experiment: 48-well plate growth inhibition of transgenic T2 Arabidopsis, relative tolerance rates versus non-transgenic (Table E2-1); type: in vivo, Arabidopsis thaliana; settings: growth inhibition evaluated seven to ten days after seeding
Excerpt: For transformation of Arabidopsis thaliana, wildtype or mutated cellulose synthase sequences encoding for one of the following protein sequences SEQ ID NO: 1 or 3, are cloned with standard cloning techniques as described in Sambrook et al. (Molecular cloning (2001) Cold Spring Harbor Laboratory Press) in a binary vector containing resistance marker gene cassette (AHAS) and mutated cellulose synthase sequence (marked as GOI) in between ubiquitin promoter (PcUbi) and nopaline synthase terminator (NOS) sequence. Binary plasmids are introduced to Agrobacterium tumefaciens for plant transformation. Arabidopsis thaliana are transformed with wildtype or mutated cellulose synthase sequences by floral dip method as described by McElver and Singh (WO 2008/124495). Transgenic Arabidopsis plants are subjected to TaqMan analysis for analysis of the number of integration loci.
Transgenic Arabidopsis thaliana plants (T2) are assayed for improved tolerance to azine herbicides like e. g. 6-cyclopentyl-N4-(2,3,4,5,6-pentafluorophenyl)-1,3,5-triazine-2,4-diamine in 48-well plates. Therefore, T2 seeds are surface sterilized by stirring for 5 min in ethanol+water (70+30 by volume), rinsing one time with ethanol+water (70+30 by volume) and two times with sterile, deionized water. The seeds are resuspended in 0.1% agar dissolved in water (w/v) Four to five seeds per well are plated on solid nutrient medium consisting of half-strength murashige skoog nutrient solution, pH 5.8 (Murashige and Skoog (1962) Physiologia Plantarum 15: 473-497). Compounds are dissolved in dimethylsulfoxid (DMSO) and added to the medium prior solidification (final DMSO concentration 0.1%). Multi well plates are incubated in a growth chamber at 22° C., 75% relative humidity and 110 μmol Phot*m^−2*s^−1 with 14:10 h light:dark photoperiod. Growth inhibition is evaluated seven to ten days after seeding in comparison to wild type plants. Tolerance factors are calculated based on IC50 values of growth inhibition of transformed versus non-transformed Arabidopsis plants.

[2] = system: wildtype Arabidopsis thaliana; experiment: Greenhouse pre-emergent treatment of M3 Arabidopsis seeds, phytotox (injury) rating, wildtype; type: in vivo; settings: 21 days after treatment
Experimental: (§1) Additionally, M3 Arabidopsis seeds are tested for improved tolerance to CESA-inhibiting herbicides in greenhouse studies with azine compounds like e. g. N2-(4-chloro-3,5,6-trifluoro-2-pyridyl)-6-(1-fluorocyclopentyl)-1,3,5-triazine-2,4-diamine (Table E1-1, see also FIG. 3).

[3] = system: At_CESA1_R292H (SEQ ID 1 - Variant R292H) M3 Arabidopsis plants; experiment: Greenhouse pre-emergent treatment of M3 Arabidopsis seeds, phytotox (injury) rating, CESA1 R292H variant; type: in vivo, Arabidopsis thaliana; settings: 21 days after treatment
Excerpt: For selection of cellulose biosynthesis inhibitor resistant plants EMS mutagenized seed populations of Arabidopsis thaliana are used. EMS mutagenized seed populations are either bought from Lehle Seeds (1102 South Industrial Blvd. Suite D, Round Rock, Texas USA) or are generated as described elsewhere (Heim D R, et al. (1989) Plant Physiol. 90: 146-150). Causative mutations in CESA wildtype sequences (e.g. SEQ ID NO: 1 or 3) are identified as described by Scheible W R et al. (2001, Proc. Natl. Acad. of Sci. 98: 10079-10084), McCourt et. al. (WO2013/142968) or with the use of next generation sequencing methods as described by Austin R S, et al. (2011) Plant Journal 67: 715-725.
as §1

[4] = Construct AtCesA1_G1031R, SEQ ID 1, variant G1031R
[5] = Construct AtCesA1_R292H, SEQ ID 1, variant R292H
[6] = Construct AtCesA1_V297M, SEQ ID 1, variant V297M
[7] = Construct AtCesA1_wt, SEQ ID 1, no variant
[8] = Construct AtCesA3_wt, SEQ ID 3, no variant
[9] = Construct AtCesA1_L1011A, SEQ ID 1, variant L1011A
[10] = Construct AtCesA3_F1039L, SEQ ID 3, variant F1039L

Compound: Cc1cccc(-n2nc(C(N)=O)nc2-c2ccccc2)c1
- Relative tolerance rate of transgenic Arabidopsis plants as compared to non-transgenic (non-transgenic = 1.0) [1, 4]: 13
- Relative tolerance rate of transgenic Arabidopsis plants as compared to non-transgenic (non-transgenic = 1.0) [1, 5]: 31
- Relative tolerance rate of transgenic Arabidopsis plants as compared to non-transgenic (non-transgenic = 1.0) [1, 6]: 5
- Relative tolerance rate of transgenic Arabidopsis plants as compared to non-transgenic (non-transgenic = 1.0) [1, 7]: 3
- Relative tolerance rate of transgenic Arabidopsis plants as compared to non-transgenic (non-transgenic = 1.0) [1, 8]: 4

Compound: NC(=O)c1nc(-c2ccccc2)n(-c2ccc(Cl)c(COCC(F)(F)C(F)(F)F)c2)n1 [1-[4-chloro-3-(2,2,3,3,3-pentafluoropropoxymethyl)phenyl]-5-phenyl-1,2,4-triazole-3-carboxamide, reference compound]
- phytotox value ([2]; 7.8 g ai/ha): 12.5
- phytotox value ([2]; 31.25 g ai/ha): 99
- phytotox value ([2]; 125 g ai/ha): 100
- phytotox value ([2]; 250 g ai/ha): 100
- phytotox value ([3]; At_CESA1_R292H event A, 7.8 g ai/ha): 7.5
- phytotox value ([3]; At_CESA1_R292H event A, 31.25 g ai/ha): 80
- phytotox value ([3]; At_CESA1_R292H event A, 125 g ai/ha): 100
- phytotox value ([3]; At_CESA1_R292H event A, 250 g ai/ha): 100
- phytotox value ([3]; At_CESA1_R292H event B, 7.8 g ai/ha): 25
- phytotox value ([3]; At_CESA1_R292H event B, 31.25 g ai/ha): 52.5
- phytotox value ([3]; At_CESA1_R292H event B, 125 g ai/ha): 100
- phytotox value ([3]; At_CESA1_R292H event B, 250 g ai/ha): 100
- Relative tolerance rate of transgenic Arabidopsis plants as compared to non-transgenic (non-transgenic = 1.0) [1, 9]: 7
- Relative tolerance rate of transgenic Arabidopsis plants as compared to non-transgenic (non-transgenic = 1.0) [1, 10]: 3

Compound: Nc1nc(Nc2nc(F)c(F)c(Cl)c2F)nc(C2(F)CCCC2)n1 [N2-(4-chloro-3,5,6-trifluoro-2-pyridyl)-6-(1-fluorocyclopentyl)-1,3,5-triazine-2,4-diamine]
- phytotox value ([2]; 0.5 g ai/ha): 60
- phytotox value ([2]; 1 g ai/ha): 65
- phytotox value ([2]; 2 g ai/ha): 98
- phytotox value ([2]; 4 g ai/ha): 100
- phytotox value ([3]; At_CESA1_R292H event A, 0.5 g ai/ha): 10
- phytotox value ([3]; At_CESA1_R292H event A, 1 g ai/ha): 10
- phytotox value ([3]; At_CESA1_R292H event A, 2 g ai/ha): 45
- phytotox value ([3]; At_CESA1_R292H event A, 4 g ai/ha): 94
- phytotox value ([3]; At_CESA1_R292H event B, 0.5 g ai/ha): 5
- phytotox value ([3]; At_CESA1_R292H event B, 1 g ai/ha): 0
- phytotox value ([3]; At_CESA1_R292H event B, 2 g ai/ha): 17.5
- phytotox value ([3]; At_CESA1_R292H event B, 4 g ai/ha): 87.5
- Relative tolerance rate of transgenic Arabidopsis plants as compared to non-transgenic (non-transgenic = 1.0) [1, 4]: 3
- Relative tolerance rate of transgenic Arabidopsis plants as compared to non-transgenic (non-transgenic = 1.0) [1, 9]: 1
- Relative tolerance rate of transgenic Arabidopsis plants as compared to non-transgenic (non-transgenic = 1.0) [1, 5]: 1
- Relative tolerance rate of transgenic Arabidopsis plants as compared to non-transgenic (non-transgenic = 1.0) [1, 6]: 1
- Relative tolerance rate of transgenic Arabidopsis plants as compared to non-transgenic (non-transgenic = 1.0) [1, 7]: 2
- Relative tolerance rate of transgenic Arabidopsis plants as compared to non-transgenic (non-transgenic = 1.0) [1, 10]: 1
- Relative tolerance rate of transgenic Arabidopsis plants as compared to non-transgenic (non-transgenic = 1.0) [1, 8]: 1

Source: patent US12018267B2, “Plants having increased tolerance to herbicides” (BASF SE, priority 2015, dated 2024)
